Data on 7 compounds can be found in patent publication US20240383911A1, “AZAINDAZOLE MACROCYCLE COMPOUNDS AND USES THEREOF” (BROADENBIO CO., LTD, priority 2021, published 2024).

Usually IC50 stands for the concentration at which inhibition is half-maximal.

For one experiment, the system named is MV-4-11 cells. As to the kind of experiment: Detection of MV-4-11 cell activity (CellTiter-Glo). In kind it is cell-based. Conditions: Homo sapiens, MV4-11, 120 h, 5 days, CTG, read-out: IC50, inhibitory effects on MV-4-11 cell activity. As for the experimental part: The CellTiter-Glo (CTG) luminescence method was used to detect the effect of compounds on the activity of MV-4-11 cells.
Tested compounds: compound prepared in the Examples of the present invention.
Add 100 μL containing 20,000 MV-4-11 (human myeloid monocytic leukemia cells, from the Cell Bank of the Chinese Academy of Sciences, Cat. No. SCSP-5031) cell suspension to 96-well flat-bottom clear-bottomed cell plates (Corning, Cat #3603), and then add 100 μL of cell culture medium containing a series of concentrations of the compound to be tested, with a total volume of 200 μL per well. The final gradient concentrations of the compounds were 500 nM, 125 nM, 31.25 nM, 7.813 nM, 1.953 nM, 0.488 nM, 0.122 nM, 0.031 nM, and 0.008 nM, and the final DMSO content was 0.5%. Set cells with the cell culture medium containing 0.5% DMSO but without compounds as the 100% control; set the culture medium wells without cells as 0% background control. Incubate the cell plate in a humidified incubator at 37° C. and 5% CO2 for 5 days. After 5 days, take out the cell plate, centrifuge (1000 rpm) for 5 minutes, remove and discard 100 μL supernatant, add 100 μL CTG reagent (Promega, Cat #G7572) to each well, shake at room temperature for 10 minutes to promote cell lysis, and incubate at room temperature for 30 minutes to stabilize the luminescence signal. Use a microplate reader (Molecular Device, i3X) to read the Luminescent fluorescence value, use GraphPad Prism 5.0 software to analyze the original data, use nonlinear S-curve regression to fit the data to obtain the dose-effect curve (cell survival rate %), and calculate the IC50 value.
A general note: ATP-based viability assays read luminescence as a measure of living cells.

A further experiment concerns the target HPK1 (Homo sapiens, UniProt Q92918). The experiment in a line: HPK1 kinase activity inhibition test (ADP-Glo, luminescence). It is filed as biochemical. To be noted: 2 μM ATP, 5 nM HPK1, read-out: IC50, inhibitory effects on HPK1 kinase activity. An outline of the steps: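 Autophosphorylation assay without added substrate: HPK1 preincubated with compound 10 min at 25 °C, then ATP added for 60 min at 25 °C; final DMSO 0.5%. ADP measured by ADP-Glo luminescence; IC50 from four-parameter nonlinear fit.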
For orientation: In ADP-Glo the light output rises with the ADP produced.

Another experiment relates to Human Jurkat-E6-1 cells. As to the kind of experiment: Detection of IL-2 production by Jurkat cells using ELISA. In kind it is cell-based. Conditions: anti-CD3/anti-CD28 stimulation 24 hours, read-out: Percentage of the amount of IL-2 secreted by compound treated vs DMSO-treated cells; for activity at 0.33 µM: tested compound 0.33 μM; for activity at 1 µM: tested compound 1.0 μM. An outline of the steps:
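Jurkat E6-1 cells were pre-incubated with compound for 30 min at 37 °C, then stimulated 24 h on plate-bound anti-CD3 plus soluble anti-CD28. Secreted IL-2 in supernatant was measured by sandwich ELISA (450 nm) against a standard curve and expressed as % of DMSO-treated cells.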
In general terms: An ELISA detects its analyte on a solid surface through an enzyme-linked reagent.

Another experiment concerns the target KDR (Homo sapiens, UniProt P35968). As to the kind of experiment: KDR kinase activity inhibition test (HTRF). It is filed as biochemical. To be noted: read-out: IC50, inhibitory effects on KDR kinase activity. The procedure: (§1) Tested compounds: compounds prepared in the Examples of this invention.
(§2) Prepare compound stock solution: dissolve the test compound in 100% DMSO to make a 10 mM stock solution. Dilute the stock solution of the test compound by 5 times with 100% DMSO, make a 4-fold equal dilution in a 96-well dilution plate, add 1 μL of the compound to 39 μL of kinase reaction buffer (1×kinase buffer, 5 mM MgCl2, 1 mM DTT), and shake on a microplate shaker for 20 minutes. 4×Positive control (4 μL of positive compound solution of the starting concentration, add 196 μL of kinase buffer) and 4×negative control (4 μL of 100% DMSO, add 196 μL of kinase buffer).
(1) Use 1×kinase reaction buffer to prepare 2.5×KDR kinase solution (250 μM), transfer 2 μL of the kinase solution to the 384 reaction plate, and add 1 μL of the test compound solution of gradient concentration to the 384 reaction plate (Greiner, Cat #784075), centrifuge for 1 minute (1000 rpm), and incubate at 25° C. for 10 minutes.
(§3) (2) Use 1×kinase reaction buffer to prepare 2.5×TK-substrate-biotin (2.5 μM) and 2.5×ATP (2.5 μM), mix well, and add 2 μL of the TK-substrate-biotin/ATP solution to the 384 reaction plate, centrifuge for 30 seconds (1000 rpm), and incubate at 25° C. for 40 minutes.
(§4) (3) Use HTRF detection buffer to prepare 2×Sa-XL 665 (125 nM) and 1×TK-antibody-Cryptate. Add 5 μL of a mixture of Sa-XL 665 and TK-antibody-Cryptate solutions to each well, centrifuge for 30 seconds (1000 rpm), and react at room temperature for 1 hour.
(§5) (4) The fluorescence signal is read using a Biotek multi-function plate reader, and the IC50 (half inhibitory concentration) of the compound is obtained using a four-coefficient nonlinear fitting formula.

A further experiment has as its target T1, FLT3 (Homo sapiens, UniProt P36888).
T1 sequence (P36888 27-993): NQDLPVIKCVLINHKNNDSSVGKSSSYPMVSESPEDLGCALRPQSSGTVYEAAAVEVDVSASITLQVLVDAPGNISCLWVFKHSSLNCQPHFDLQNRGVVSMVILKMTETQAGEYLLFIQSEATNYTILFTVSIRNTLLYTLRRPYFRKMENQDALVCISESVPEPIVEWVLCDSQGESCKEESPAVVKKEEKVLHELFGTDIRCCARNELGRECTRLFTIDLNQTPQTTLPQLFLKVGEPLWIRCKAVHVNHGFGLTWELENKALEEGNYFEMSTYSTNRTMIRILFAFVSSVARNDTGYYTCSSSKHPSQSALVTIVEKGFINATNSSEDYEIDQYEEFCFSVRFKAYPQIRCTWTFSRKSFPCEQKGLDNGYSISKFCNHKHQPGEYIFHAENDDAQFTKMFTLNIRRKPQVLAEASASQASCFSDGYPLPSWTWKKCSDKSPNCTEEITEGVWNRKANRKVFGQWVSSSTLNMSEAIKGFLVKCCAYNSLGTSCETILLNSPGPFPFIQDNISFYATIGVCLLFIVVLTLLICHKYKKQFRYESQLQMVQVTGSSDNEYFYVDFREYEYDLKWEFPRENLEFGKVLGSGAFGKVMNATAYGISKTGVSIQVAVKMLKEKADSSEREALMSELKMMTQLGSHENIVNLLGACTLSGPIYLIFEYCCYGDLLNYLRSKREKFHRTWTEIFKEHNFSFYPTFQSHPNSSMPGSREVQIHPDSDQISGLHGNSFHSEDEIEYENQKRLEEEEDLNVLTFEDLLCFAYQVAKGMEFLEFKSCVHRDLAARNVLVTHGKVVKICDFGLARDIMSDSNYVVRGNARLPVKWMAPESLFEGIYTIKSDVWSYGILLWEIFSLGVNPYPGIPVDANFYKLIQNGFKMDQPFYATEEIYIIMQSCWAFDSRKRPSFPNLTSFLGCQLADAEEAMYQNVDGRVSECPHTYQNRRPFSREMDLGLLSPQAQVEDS
As to the kind of experiment: FLT3 kinase activity inhibition test (HTRF). It is filed as biochemical. Conditions: read-out: IC50, inhibitory effects on FLT3 kinase activity. As for the experimental part: as §1, §2
(1) Use 1×kinase reaction buffer to prepare 2.5×FLT3 kinase solution (160 μM), transfer 2 μL of the kinase solution to the 384 reaction plate, and add 1 μL of the test compound solution of gradient concentration to the 384 reaction plate (Greiner, Cat #784075), centrifuge for 1 minute (1000 rpm), and incubate at 25° C. for 10 minutes.
as §3, §4, §5

KDR, sequence (P35968 20-1356): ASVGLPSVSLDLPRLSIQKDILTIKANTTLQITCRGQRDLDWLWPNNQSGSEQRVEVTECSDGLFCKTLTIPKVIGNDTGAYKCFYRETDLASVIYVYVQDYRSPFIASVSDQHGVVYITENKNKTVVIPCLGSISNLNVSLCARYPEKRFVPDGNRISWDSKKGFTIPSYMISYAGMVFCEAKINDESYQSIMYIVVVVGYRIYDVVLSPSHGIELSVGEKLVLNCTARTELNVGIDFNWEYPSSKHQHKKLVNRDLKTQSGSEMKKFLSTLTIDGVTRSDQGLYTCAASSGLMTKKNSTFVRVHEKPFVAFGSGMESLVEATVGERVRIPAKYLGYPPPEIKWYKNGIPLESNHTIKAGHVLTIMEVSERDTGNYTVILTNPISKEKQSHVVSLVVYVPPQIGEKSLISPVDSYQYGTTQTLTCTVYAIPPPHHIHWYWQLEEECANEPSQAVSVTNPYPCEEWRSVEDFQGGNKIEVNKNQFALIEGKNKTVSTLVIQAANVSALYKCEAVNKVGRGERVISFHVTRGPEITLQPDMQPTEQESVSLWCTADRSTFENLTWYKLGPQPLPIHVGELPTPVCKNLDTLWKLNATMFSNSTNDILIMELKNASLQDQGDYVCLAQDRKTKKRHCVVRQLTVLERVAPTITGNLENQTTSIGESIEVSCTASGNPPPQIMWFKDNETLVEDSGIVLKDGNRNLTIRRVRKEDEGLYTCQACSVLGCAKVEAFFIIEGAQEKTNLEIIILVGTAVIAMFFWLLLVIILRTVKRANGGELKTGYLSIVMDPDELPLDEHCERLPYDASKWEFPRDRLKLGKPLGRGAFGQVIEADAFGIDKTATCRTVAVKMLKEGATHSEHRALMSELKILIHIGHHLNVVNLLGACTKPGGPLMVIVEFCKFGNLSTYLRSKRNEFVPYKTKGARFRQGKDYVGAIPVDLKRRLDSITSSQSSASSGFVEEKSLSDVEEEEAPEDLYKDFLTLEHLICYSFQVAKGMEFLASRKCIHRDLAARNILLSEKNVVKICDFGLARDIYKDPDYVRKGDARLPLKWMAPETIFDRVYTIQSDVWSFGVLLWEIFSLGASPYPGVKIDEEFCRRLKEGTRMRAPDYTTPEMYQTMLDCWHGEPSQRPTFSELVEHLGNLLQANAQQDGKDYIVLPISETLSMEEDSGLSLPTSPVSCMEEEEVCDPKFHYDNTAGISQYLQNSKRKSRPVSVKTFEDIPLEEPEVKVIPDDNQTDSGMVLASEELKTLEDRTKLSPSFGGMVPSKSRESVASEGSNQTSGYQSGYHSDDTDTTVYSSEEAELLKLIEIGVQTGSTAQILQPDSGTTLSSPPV
HPK1, sequence (Q92918 whole entry): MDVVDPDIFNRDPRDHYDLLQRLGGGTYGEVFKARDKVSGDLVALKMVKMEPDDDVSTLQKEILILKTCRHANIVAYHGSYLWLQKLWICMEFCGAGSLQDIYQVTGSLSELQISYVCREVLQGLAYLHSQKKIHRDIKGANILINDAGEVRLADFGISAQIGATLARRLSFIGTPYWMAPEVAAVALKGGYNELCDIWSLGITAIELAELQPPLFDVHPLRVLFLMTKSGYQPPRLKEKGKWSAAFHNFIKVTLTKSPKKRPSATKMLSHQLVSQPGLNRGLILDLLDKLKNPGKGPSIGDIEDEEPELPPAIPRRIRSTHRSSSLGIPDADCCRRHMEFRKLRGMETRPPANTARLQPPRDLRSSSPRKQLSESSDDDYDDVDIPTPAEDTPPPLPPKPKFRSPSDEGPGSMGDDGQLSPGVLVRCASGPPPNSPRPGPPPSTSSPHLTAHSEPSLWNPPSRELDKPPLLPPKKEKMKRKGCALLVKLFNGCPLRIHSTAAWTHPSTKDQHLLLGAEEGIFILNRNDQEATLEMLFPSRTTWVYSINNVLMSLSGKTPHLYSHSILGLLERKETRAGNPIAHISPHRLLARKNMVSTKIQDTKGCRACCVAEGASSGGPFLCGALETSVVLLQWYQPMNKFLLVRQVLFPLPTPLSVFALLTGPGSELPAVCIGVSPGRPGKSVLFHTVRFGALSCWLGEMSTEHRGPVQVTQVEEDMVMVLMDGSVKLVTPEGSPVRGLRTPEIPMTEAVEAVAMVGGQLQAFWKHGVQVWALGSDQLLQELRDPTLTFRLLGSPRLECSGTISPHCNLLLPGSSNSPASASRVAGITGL

As to `Fc1cccc2c1-c1cc3c(n[nH]c3cn1)-c1ccc(N3CCOCC3)c(c1)OCCCO2` [Compound 5, 16-fluoro-5-(morpholin-4-yl)-7,11-dioxa-19,22,23-triazapentacyclo[16.5.2.1^2,6.0^12,17.0^21,24]hexacosa-1(23),2(26),3,5,12,14,16,18,20,24-decaene], the IC50 with MV-4-11 cells was 50 nM; on HPK1 it was 5 to 50 nM. Moreover, the activity at 3 µM in the experiment with Human Jurkat-E6-1 cells (tested compound 3.0 μM) was found to be 717%.
For `CN1CCN(c2ccc3cc2OCCCOCc2cccc(F)c2-c2cc4c-3n[nH]c4cn2)CC1` [Compound 11, 17-fluoro-5-(4-methylpiperazin-1-yl)-7,11-dioxa-20,23,24-triazapentacyclo[17.5.2.1^2,6.0^13,18.0^22,25]heptacosa-1(24),2(27),3,5,13,15,17,19,21,25-decaene], the IC50 in the experiment with MV-4-11 cells is 6.1 nM; at KDR, at most 5 nM; on FLT3 it was at most 5 nM; on HPK1 it was at most 5 nM.
Consider `Fc1cccc2c1-c1cc3c(n[nH]c3cn1)-c1ccc(N3CCN4CCOC[C@H]4C3)c(c1)OCCCOC2` [Compound 103, 5-[(9aR)-octahydropyrazino[2,1-c][1,4]oxazin-8-yl]-17-fluoro-7,11-dioxa-20,23,24-triazapentacyclo[17.5.2.1^2,6.0^13,18.0^22,25]heptacosa-1(24),2,4,6(27),13(18),14,16,19,21,25-decaene], for which the 50% inhibitory concentration (IC50) at KDR, on FLT3 and at HPK1 was at most 5 nM throughout. Besides, the activity at 0.33 µM in the experiment with Human Jurkat-E6-1 cells is 580%.
`O[C@H]1COc2cc(ccc2N2CCN3CCOC[C@H]3C2)-c2n[nH]c3cnc(cc23)-c2c(F)cccc2OC1` [Compound 119, (9R)-5-[(9aR)-octahydropyrazino[2,1-c][1,4]oxazin-8-yl]-16-fluoro-7,11-dioxa-19,22,23-triazapentacyclo[16.5.2.1^2,6.0^12,17.0^21,24]hexacosa-1(23),2,4,6(26),12(17),13,15,18,20,24-decaen-9-ol]: the IC50 was at most 5 nM at KDR, at most 5 nM at FLT3 and 5 to 50 nM on HPK1. In addition, the activity at 0.33 µM with Human Jurkat-E6-1 cells worked out at 591%.
For `CN1CCN(c2ccc3cc2OCCCOCc2cccc(F)c2-c2cc4c-3n[nH]c4cn2)C[C@H]1CO` [Compound 122, [(2S)-4-{17-fluoro-7,11-dioxa-20,23,24-triazapentacyclo[17.5.2.1^2,6.0^13,18.0^22,25]heptacosa-1(24),2,4,6(27),13(18),14,16,19,21,25-decaen-5-yl}-1-methylpiperazin-2-yl]methanol], the IC50 at KDR, at FLT3 and on HPK1 was at most 5 nM in each case. Also, in the experiment on Human Jurkat-E6-1 cells, the activity at 0.33 µM came out at 345%.
For `CN1C2CCC1CN(c1ccc3cc1OCCCOc1cccc(F)c1-c1cc4c-3n[nH]c4cn1)C2` [Compound 144, 16-fluoro-5-{8-methyl-3,8-diazabicyclo[3.2.1]octan-3-yl}-7,11-dioxa-19,22,23-triazapentacyclo[16.5.2.1^2,6.0^12,17.0^21,24]hexacosa-1(23),2,4,6(26),12(17),13,15,18,20,24-decaene], the IC50 at KDR, on FLT3 and on HPK1 was at most 5 nM throughout. For the same compound, the activity at 1 µM with Human Jurkat-E6-1 cells was 517%.
With `CN1C[C@@H]2C[C@H]1CN2c1ccc2cc1OCCCOCc1cccc(F)c1-c1cc3c-2n[nH]c3cn1` [Compound 151, 17-fluoro-5-[(1S,4S)-5-methyl-2,5-diazabicyclo[2.2.1]heptan-2-yl]-7,11-dioxa-20,23,24-triazapentacyclo[17.5.2.1^2,6.0^13,18.0^22,25]heptacosa-1(24),2,4,6(27),13(18),14,16,19,21,25-decaene], the IC50 at KDR, on FLT3 and at HPK1 was at most 5 nM throughout. The activity at 1 µM in the experiment with Human Jurkat-E6-1 cells came to 416%.
